Measured values: patent US7927612B2, “Combinations and methods for treating neoplasms” (priority 2000, dated 2011)
Values joined by “and” are separate entries in the source; they are usually repeats but may differ in a detail not shown here. Equal entries are not always repeated.

Key:
[1] = Body weight of tumor-bearing mice in the treatment efficacy study (Example 9, Tables 14-16); assay type: in vivo, Kuiking mice; set-up: unit: g; conditions: control group
Experimental: (§1) Kuiking mice were used in this study. The average weight of the mice used in this study is about 23 grams. About 10^3 liver cancer cells were implanted into the left army pit of mice. At about 10 days, the small tumor grew under the mice skin. At about 15 days, the tumor grew to about 1 cm size. The mice were divided into three groups: control group, therapy group and immunotherapy group. In the control group, 0.1 ml of Ara-C in normal saline was injected to the tumor via intro-tumor injection.
In the immunotherapy group, 0.1 ml of the combination of ethanol, H2O2, anticancer drug AraC, hemotoxilin and TNP in normal saline was injected to the tumor via intro-tumor injection.

liver cancer cells = assay: Treatment efficacy study in mice with implanted liver cancer cells: tumor volume (Example 9, Tables 14-16); assay type: in vivo, Kuiking mice; set-up: Everage TV1 (average tumor volume): unit not given here; conditions: control group
Experimental: as §1, with “At about 10 days, the small tumor grew under the mice skin. At about 15 days, the tumor grew to about 1 cm size.” left out, “injection. […]” for “injection.”

[2] = Date (start), individual mice No. 1-10

Substance: Cytidine Arabinosyladenine [Ara-C]
- Weight ([1]; 1 d, individual mice): 25 (3×) and 20 and 21 and 17 and 25.5 and 18 and 23.5 and 27
- Weight ([1]; 2 d, individual mice): 24 (2×) and 19 (2×) and 16.5 and 17 and 23.8 and 17.5 and 21 and 25
- Weight ([1]; 3 d, individual mice): 22 (4×) and 17.5 and 17 and 15 and 16.5 and 20 and 23.5
- Weight ([1]; 4 d, individual mice): 26.5 and 24 (2×) and 28.2 and 22.8 and 15.8 and 16.5 and 26 and 20 and 28.5
- Weight ([1]; 5 d, individual mice): 24.5 and 30 and 28.5 and 24 (2×) and 28 and 19 and 26.5 and 21.5
- Weight ([1]; 6 d, individual mice): 23.5 and 31 and 29.5 and 24.5 and 28 (2×) and 24 and 19 and 22
- Weight ([1]; 7 d, individual mice): 24 (2×) and 32.5 and 29 and 24.5 and 28.5 and 19.5 and 28 and 21
- Weight ([1]; 8 d, individual mice): 24.5 (3×) and 33 and 24 and 28.5 (2×) and 20 and 21
- Weight ([1]; 9 d, individual mice): 24.5 (2×) and 33.5 and 23.5 and 28.5 (2×) and 21 and 29 and 23
- Weight [1, 2]: 23.5 and 24 and 22.5 and 18 and 18.5 and 14 and 23 and 14.5 and 20 and 26
- Everage TV1 (average tumor volume) (liver cancer cells; 1 d): 0.8
- TV (tumor volume) (liver cancer cells; 1 d, individual mice): 1.3*0.7*0.5 = 0.455 Scm and 1.1*0.8*0.6 = 0.528 Scm and 1.4*1.1*1 = 1.54 Scm and 1*0.9*0.6 = 0.54 Scm and 1.1*1*0.7 = 0.77 Scm and 1.3*0.9*0.8 = 0.94 Scm and 1*0.7*0.7 = 0.49 Scm and 1.1*0.7*0.6 = 0.462 Scm
- Everage TV1 (average tumor volume) (liver cancer cells; 2 d): 1.33
- TV (tumor volume) (liver cancer cells; 2 d, individual mice): 1.2*1.1*0.8 = 1.1 Scm and 1.2*0.9*0.5 = 0.54 Scm and 1.4*1.2*0.8 = 1.34 Scm and 1*0.8*0.6 = 0.48 Scm and 1.3*0.6*0.5 = 0.39 Scm and 1.3*1*0.8 = 1.04 Scm and 1.3*0.8*0.7 = 0.73 Scm and 1.2*1.1*0.8 = 1.06 Scm and 1.2*1*0.8 = 0.96 Scm and 1.3*0.9*0.6 = 0.702 Scm
- Everage TV1 (average tumor volume) (liver cancer cells; 3 d): 1.47
- TV (tumor volume) (liver cancer cells; 3 d, individual mice): 1.1*1.2*0.7 = 0.924 Scm and 1.5*1.2*1 = 1.8 Scm (2×) and 1.2*0.9*0.6 = 0.648 Scm and 1.2*1.1*0.8 = 1.1 Scm and 1.2*1*0.6 = 0.72 Scm and 1.4*1.1*0.7 = 1.08 Scm and 1.4*1.2*0.8 = 1.34 Scm and 1*1*0.6 = 0.6 Scm
- Everage TV1 (average tumor volume) (liver cancer cells; 4 d): 1.47
- TV (tumor volume) (liver cancer cells; 4 d, individual mice): 1.3*1.4*1.1 = 2 Scm and 1.5*1*0.6 = 0.99 Scm and 1.6*1.4*1 = 2.24 Scm and 1.2*0.8*0.5 = 1 Scm and 1.6*1.3*1.4 = 2.9 Scm and 1.4*0.8*0.6 = 0.67 Scm and 1.5*1.2*1.1 = 1.98 Scm and 1.2*1.1*0.8 = 1.06 Scm and 1.3*1.1*0.8 = 1.14 Scm and 1*1*0.7 = 0.7 Scm
- Everage TV1 (average tumor volume) (liver cancer cells; 5 d): 1.65
- TV (tumor volume) (liver cancer cells; 5 d, individual mice): 1.4*1*1 = 1.4 Scm and 1.5*1.3*1 = 1.95 Scm and 1.5*1.1*0.7 = 1.16 Scm and 1.7*1.3*0.9 = 1.98 Scm and 1.2*1.2*0.7 = 1 Scm and 1.5*1.3*0.9 = 1.75 Scm and 1.7*1.4*1 = 2.38 Scm and 1.4*1.4*1 = 1.96 Scm and 1.6*1*0.8 = 1.28 Scm
- Everage TV1 (average tumor volume) (liver cancer cells; 6 d): 1.87
- TV (tumor volume) (liver cancer cells; 6 d, individual mice): 1.3*1.1*0.8 = 1.14 Scm and 1.6*1.3*1.1 = 2.28 Scm and 1.2*1*0.5 = 0.6 Scm and 1.8*1.2*1 = 2.16 Scm and 1.3*1.5*0.6 = 1.17 Scm and 1.6*1.4*1 = 2.24 Scm and 1.9*1.6*1.2 = 3.6 Scm and 1.5*1.4*1.1 = 2.31 Scm and 1.4*1.2*0.8 = 1.34 Scm
- Everage TV1 (average tumor volume) (liver cancer cells; 7 d): 2.59
- TV (tumor volume) (liver cancer cells; 7 d, individual mice): 1.5*0.8*0.7 = 0.84 Scm and 1.8*1.6*1.5 = 4.32 Scm and 1.4*0.9*0.6 = 0.76 Scm and 1.9*1.4*1.2 = 3.19 Scm and 1.5*1.3*0.9 = 1.76 Scm and 1.9*1.5*1 = 2.85 Scm and 1.8*1.5*1.5 = 4 Scm and 1.5*1.4*1.3 = 2.73 Scm and 1.5*1.6*1.2 = 2.88 Scm
- Everage TV1 (average tumor volume) (liver cancer cells; 8 d): 2.73
- TV (tumor volume) (liver cancer cells; 8 d, individual mice): 1.3*0.9*0.7 = 0.819 Scm and 1.4*1.5*1.3 = 2.73 Scm and 1.8*1.2*1.2 = 2.59 Scm and 1.2*0.7*0.6 = 0.5 Scm and 1.5*1.5*1.2 = 2.7 Scm and 1.5*1.6*1.4 = 3.36 Scm and 1.5*1.3*1.2 = 2.34 Scm and 1.5*1.4*1.2 = 2.52 Scm and 1.5*1.2*1.1 = 1.98 Scm
- Everage TV1 (average tumor volume) (liver cancer cells; 9 d): 3.12
- TV (tumor volume) (liver cancer cells; 9 d, individual mice): 1.5*1.2*0.9 = 1.62 Scm and 1.8*1.8*1.8 = 5.8 Scm and 1.9*1.5*1.4 = 3.99 Scm and 1.6*1.1*0.7 = 1.2 Scm and 2.1*1.5*1.4 = 4.4 Scm and 1.3*1.4*1.1 = 2 Scm and 1.7*1.4*1.1 = 2.62 Scm and 1.4*1.6*1.4 = 3.14 Scm and 1.8*1.4*1.3 = 3.28 Scm
- Everage TV1 (average tumor volume) (liver cancer cells; Date (start)): 0.343
- TV (tumor volume) (liver cancer cells; [2]): 0.8*0.6*0.4 = 0.192 Scm and 1*0.5*0.3 = 0.15 Scm and 1.3*0.9*0.6 = 0.7 Scm and 1*0.7*0.5 = 0.35 Scm and 0.9*0.7*0.5 = 0.32 Scm and 0.8*0.6*0.5 = 0.24 Scm and 1*0.9*0.6 = 0.54 Scm and 1*0.8*0.5 = 0.4 Scm and 0.7*0.7*0.6 = 0.294 Scm and 0.7*0.7*0.5 = 0.245 Scm
